How the values were obtained:
[1] = system: very long-chain acyl-CoA dehydrogenase (VLCAD); assay: VLCAD enzymatic activity in cultured fibroblasts from symptomatic VLCAD-deficient FAOD patients (ETF fluorescence reduction ACAD activity assay); format: cell-based, human; settings: cultured fibroblasts from symptomatic patients with VLCAD deficiency
Experimental: Subjects. Skin biopsies for fibroblast culture are performed on a clinical basis with written informed consent from subjects and/or legal guardians. Fibroblast cells with mutations in any one of the genes and/or proteins associated with a fatty acid oxidation disorder (FAOD) ae obtained from patients' skin biopsies, while wild type (WT) fibroblast cells are obtained from healthy individuals.
Fibroblast cells, in some cases, are obtained from subjects with a confirmed diagnosis of a fatty acid oxidation disorder (FAOD) (e.g. MCAD, VLCAD, CPT1, CACT, CPT2, LCHAD, and/or mitochondrial TFP deficiencies or mutations) or they, in some cases, are purchased is available from commercial sources, e.g. from the Coriell Institute for Medical Research (403 Haddon Avenue, Camden, N.J. 08103).
Cell culture and treatments. Cells are grown in Dulbecco's Modified Eagle Medium (DMEM), Corning Life Sciences, Manassas, Va., containing high glucose levels or in DMEM devoid of glucose for 48-72 hr. Both media are supplemented with fetal bovine serum, glutamine, penicillin and/or streptomycin. In some experiments, fibroblasts are incubated with N-acetylcysteine, resveratrol, mitoQ, Trolox (a hydro-soluble analogue of vitamin E), or bezafibrate, prior to the analysis of parameters.
A PPARδ agonist compound is dissolved in phosphate buffer saline, PBS, as a stock solution. […]

[2] = system: subjects with FAOD; assay: FAOD clinical trial with Compound 1; format: in vivo, human
Experimental: In some embodiments, outcome measures are assessed with tests that assess exercise tolerance. In some embodiments, exercise tolerance is assessed with exercise tests. Exercise tests include, but are not limited to, submaximal treadmill, walking tests (e.g. without limitation, 6 minute; 12 minute walks), run tests, treadmill and ergometry exercise testing. In some embodiments, exercise tests are used in combination with the Borg Scale of perceived exertion. In some embodiments, exercise tests are performed according to guidelines set forth by the American Thoracic Society (ATS).
In some embodiments, stable isotope methods are used to measure in vivo residual fatty acid oxidation capacity. Enrichment of ^13CO2 only occurs by one complete round of fatty acid oxidation. A representative protocol is as follows. A fasting blood sample is obtained after an overnight fast. Prior to breakfast, a resting indirect calorimetry is measured. Subjects are then given a meal (e.g a shake) containing 17-mg/kg ^13C-oleic acid. Breath samples are collected prior to (time 0) and again hourly at 1, 2, 3, 4, 5, 6, 7, and 8 hours following the ^13C-oleic administration. ^13C in breath samples are measured as a ratio of ^13C/^12C using the Delta Plus IRMS (Finnigan MAT, Bremen, Germany). Recovery is calculated as ^13C divided by the dose of ^13C administered. The amount of excess ^13C in breath is a measure of residual fatty acid oxidation capacity in subjects with disorders of long-chain fatty acid oxidation.
In some embodiments, improvements in fatty acid oxidation in subjects with a FAOD that are treated with a PPARδ agonist compound described herein (e.g. Compound 1, or a pharmaceutically acceptable salt thereof) are measured with a suitable ^13CO2 breath sample test. In some embodiments, a suitable ^13CO2 breath sample test comprises the steps of: 1) providing the subject a meal comprising ^13C-enriched fatty acid(s); 2) administering to the subject a PPARδ agonist compound, or a pharmaceutically acceptable salt thereof, after the consumption of the meal; and 3) collecting breath samples from the subject at regular intervals and measuring the relative amount of ^13CO2 to ^12CO2 in the breath samples. In some embodiments, the breath samples are collected about every hour. In some embodiments, the meal is enriched with a 13C labeled fatty acid, wherein the fatty acid is butyric acid, caproic acid, caprylic acid, capric acid, lauric acid, myristic acid, palmitic acid, stearic acid, arachidic acid, behenic acid, lignoceric acid, caproleic acid, lauroleic acid, myristoleic acid, palmitoleic acid, oleic acid, elaidic acid, vaccenic acid, gadoleic acid, erucic acid, brassidic acid, nervonic acid, linoleic acid, alpha-linolenic acid, gamma-linolenic acid, columbinic acid, stearidonic acid, mead acid, dihomo-γ-linolenic acid, arachidonic acid, eicosapentaenoic acid, docosapentaenoic acid, or docosahexaenoic acid.
A non-limiting example of a fatty acid oxidation disorder (FAOD) clinical trial in humans is described below. […]

Q: What does the source list for `Cc1cc(OC/C=C(/c2ccc(F)cc2)c2ccc(C#CCN3CCOCC3)cc2)ccc1OCC(=O)O` [Compound 1, (E)-[4-[3-(4-Fluorophenyl)-3-[4-[3-(morpholin-4-yl)propynyl]phenyl]allyloxy]-2-methyl-phenoxy]acetic acid]?
A: VLCAD enzymatic activity [1]: increased; exercise capacity ([2]; 50 mg once daily for 12 weeks): Improvements; exhaled 13CO2 ([2]; 50 mg once daily for 12 weeks): trend towards increases; heart rate during the last ten minutes of exercise ([2]; 50 mg once daily for 12 weeks): decreases; distance walked during a 12-minute walk test ([2]; 50 mg once daily for 12 weeks, FIG. 1): increase; tolerability ([2]; subjects that participated in the study): well tolerated

Source: patent US20220023306A1, “USE OF A PPAR-DELTA AGONIST IN THE TREATMENT OF FATTY ACID OXIDATION DISORDERS (FAOD)” (Reneo Pharmaceuticals, Inc., priority 2019, published 2022)
